Test results published in patent publication US20070197525A1, “Novel tetracyclic tetrahydrofuran derivatives” (priority 2004, published 2007).

Tests used:
[1] = biological target: T1, human dopamine D2L receptor (Homo sapiens, UniProt P14416); assay: In vitro assay for D2 receptor binding; settings: for D2 (pIC50) / IC50: membranes of human D2L-transfected CHO cells, [3H]Spiperone radioligand; for D2/NET: ratio of D2 pIC50 to NET-inhibition pIC50; for IC50: read-out: D2 (pIC50) (converted)
T1 construct: expressed in transfected cells; host or cells: CHO cells (frozen membranes)
Description: Frozen membranes of human dopamine D2L receptor-transfected CHO cells were thawed, briefly homogenised using an Ultra-Turrax T25 homogeniser and diluted in Tris-HCl assay buffer containing NaCl, CaCl2, MgCl2, KCl (50, 120, 2, 1, and 5 mM respectively, adjusted to pH 7.7 with HCl) to an appropriate protein concentration optimised for specific and non-specific binding. Radioligand [^3H]Spiperone (NEN, specific activity ˜70 Ci/mmol) was diluted in assay buffer at a concentration of 2 nmol/L. Prepared radioligand (50 μl), along with 50 μl of either the 10% DMSO control, Butaclamol (10^−6 mol/l final concentration), or compound of interest, was then incubated (30 min, 37° C.) with 400 μl of the prepared membrane solution. Membrane-bound activity was filtered through a Packard Filtermate harvester onto GF/B Unifilterplates and washed with ice-cold Tris-HCl buffer (50 mM; pH 7.7; 6×0.5 ml). Filters were allowed to dry before adding scintillation fluid and counting in a Topcount scintillation counter. Percentage specific bound and competition binding curves were calculated using S-Plus software (Insightful).

[2] = biological target: T2, norepinephrine transporter (NET) (Rattus norvegicus, UniProt Q63380); assay: In vitro assay for NET inhibition (radioligand binding, rat brain cortex); settings: rat brain cortex membranes, [3H]Nixosetine radioligand; for IC50: read-out: NET-inhibition (pIC50) (converted)
T2 construct: Cortex from rat brain was collected and homogenised; from tissue; host or cells: rat brain cortex membranes
Description: Cortex from rat brain was collected and homogenised using an Ultra-Turrax T25 and a Dual homogeniser in ice-cold homogenising buffer containing Tris, NaCl and KCl (50 mM, 120 mM and 5 mM, respectively, pH 7.4) prior to dilution to an appropriate protein concentration optimised for specific and non-specific binding. […] Membrane-bound activity was detected by filtration through a Packard Filtermate harvester onto GF/B Unifilterplates, washed with ice-cold Tris-HCl buffer, containing NaCl and KCl (50 mM, 120 mM and 4 mM; pH 7.4; 6×0.5 ml). Filters were allowed to dry for 24 h before adding scintillation fluid. Scintillation fluid was allowed to saturate filters for 24 h before counting in a Topcount scintillation counter. Percentage specific bound and competition binding curves were calculated using S-Plus software (Insightful).

[3] = biological target: T3, human cloned 5-HT2C receptor (Homo sapiens, UniProt P28335); assay: In vitro binding affinity for 5-HT2C receptor (radioligand binding); settings: human cloned 5-HT2C receptor expressed in CHO cells, [3H]mesulergine radioligand; read-out: 5-HT2C (pIC50) (converted)
T3 construct: expressed in transfected cells; host or cells: CHO cells
T3 sequence (P28335 33-458): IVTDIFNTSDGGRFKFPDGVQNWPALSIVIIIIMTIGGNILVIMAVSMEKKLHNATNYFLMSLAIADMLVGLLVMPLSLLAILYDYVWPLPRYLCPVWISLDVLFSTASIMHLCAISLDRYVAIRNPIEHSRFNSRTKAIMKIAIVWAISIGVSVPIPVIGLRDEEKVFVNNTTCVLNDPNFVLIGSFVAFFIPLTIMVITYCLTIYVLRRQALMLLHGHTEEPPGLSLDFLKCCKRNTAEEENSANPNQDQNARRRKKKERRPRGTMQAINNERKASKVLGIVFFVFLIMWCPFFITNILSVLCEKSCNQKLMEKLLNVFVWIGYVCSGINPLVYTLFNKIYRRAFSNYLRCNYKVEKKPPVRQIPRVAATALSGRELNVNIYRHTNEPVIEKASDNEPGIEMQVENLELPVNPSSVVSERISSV
Description: (§1) The interaction of the compounds of Formula (I) with 5-HT2A and 5-HT2C receptors was assessed in in vitro radioligand binding experiments. In general, a low concentration of a radioligand with a high binding affinity for the receptor is incubated with a sample of a tissue preparation enriched in a particular receptor (1 to 5 mg tissue) in a buffered medium (0.2 to 5 ml). During the incubation, the radioligands bind to the receptor. When equilibrium of binding is reached, the receptor bound radioactivity is separated from the non-bound radioactivity, and the receptor bound activity is counted. The interaction of the test compounds with the receptors is assessed in competition binding experiments. Various concentrations of the test compound are added to the incubation mixture containing the tissue preparation and the radioligand. Binding of the radioligand will be inhibited by the test compound in proportion to its binding affinity and its concentration. The affinities of the compounds for the 5-HT2 receptors were measured by means of radioligand binding studies conducted with: (a) human cloned 5-HT2A receptor, expressed in L929 cells using [^125I]R91150 as radioligand and (b) human cloned 5-HT2C receptor, expressed in CHO cells using [^3H]mesulergine as radioligand.

[4] = biological target: T4, human cloned 5-HT2A receptor (Homo sapiens, UniProt P28223); assay: In vitro binding affinity for 5-HT2A receptor (radioligand binding); settings: human cloned 5-HT2A receptor expressed in L929 cells, [125I]R91150 radioligand; read-out: 5-HT2A (pIC50) (converted)
T4 construct: expressed in transfected cells; host or cells: L929 cells
Description: as §1

T1 sequence (P14416 whole entry): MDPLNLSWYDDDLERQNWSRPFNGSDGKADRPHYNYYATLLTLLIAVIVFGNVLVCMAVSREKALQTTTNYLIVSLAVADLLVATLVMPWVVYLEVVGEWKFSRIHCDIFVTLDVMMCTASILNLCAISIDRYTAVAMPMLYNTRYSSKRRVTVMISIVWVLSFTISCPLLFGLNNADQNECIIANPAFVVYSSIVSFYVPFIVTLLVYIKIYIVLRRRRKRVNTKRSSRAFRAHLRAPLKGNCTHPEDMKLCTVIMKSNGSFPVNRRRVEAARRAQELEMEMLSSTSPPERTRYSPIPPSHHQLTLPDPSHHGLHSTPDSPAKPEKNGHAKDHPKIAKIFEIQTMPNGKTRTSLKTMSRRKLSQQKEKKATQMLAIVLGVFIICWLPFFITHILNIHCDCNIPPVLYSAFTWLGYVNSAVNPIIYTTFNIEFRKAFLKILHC
T2 sequence (Q63380 1-617): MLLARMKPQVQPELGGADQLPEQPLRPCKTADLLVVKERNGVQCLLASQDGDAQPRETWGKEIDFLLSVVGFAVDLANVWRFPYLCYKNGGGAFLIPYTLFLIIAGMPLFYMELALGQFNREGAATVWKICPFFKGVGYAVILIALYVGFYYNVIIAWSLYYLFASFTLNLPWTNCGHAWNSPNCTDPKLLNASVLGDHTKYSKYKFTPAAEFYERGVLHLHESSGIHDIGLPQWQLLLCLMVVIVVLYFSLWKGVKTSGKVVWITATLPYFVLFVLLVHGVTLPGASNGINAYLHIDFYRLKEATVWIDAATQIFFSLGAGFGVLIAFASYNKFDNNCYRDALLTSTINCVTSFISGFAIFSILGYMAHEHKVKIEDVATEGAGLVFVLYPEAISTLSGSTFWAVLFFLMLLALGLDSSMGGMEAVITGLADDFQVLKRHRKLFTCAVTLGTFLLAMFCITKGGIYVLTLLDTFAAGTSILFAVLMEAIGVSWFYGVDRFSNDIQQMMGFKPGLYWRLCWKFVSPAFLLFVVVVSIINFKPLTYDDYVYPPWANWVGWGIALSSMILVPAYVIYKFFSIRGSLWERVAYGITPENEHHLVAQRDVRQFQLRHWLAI
T4 sequence (P28223 whole entry): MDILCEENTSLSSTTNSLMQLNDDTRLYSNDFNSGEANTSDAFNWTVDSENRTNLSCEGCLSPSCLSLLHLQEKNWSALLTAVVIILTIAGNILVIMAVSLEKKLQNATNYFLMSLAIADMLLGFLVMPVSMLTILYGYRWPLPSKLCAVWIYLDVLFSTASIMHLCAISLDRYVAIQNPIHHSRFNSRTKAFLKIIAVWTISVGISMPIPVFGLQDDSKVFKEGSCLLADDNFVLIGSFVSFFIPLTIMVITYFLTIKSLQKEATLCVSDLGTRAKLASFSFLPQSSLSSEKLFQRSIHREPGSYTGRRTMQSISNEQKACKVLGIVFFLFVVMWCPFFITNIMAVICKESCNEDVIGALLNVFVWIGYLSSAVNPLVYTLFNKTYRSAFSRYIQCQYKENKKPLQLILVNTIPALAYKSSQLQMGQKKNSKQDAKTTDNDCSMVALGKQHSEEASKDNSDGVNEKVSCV

Compound | D2 (pIC50) [1] | D2/NET [1] | IC50 [2] | IC50 [3] | IC50 [1] | IC50 [4] | NET-inhibition (pIC50) [2]
C=C1c2ccccc2[C@H]2C[C@H](CN(C)C)O[C@@H]2c2ccccc21 [Compound 25] | – | 0.85 | 12.6 nM | 3.98 nM | 200 nM | 12.6 nM | –
CCNCC1CC2c3ccccc3C(C)(O)c3ccc(F)cc3C2O1 (single isomer, unassigned) [Compound 119] | – | 0.67 | 31.6 nM | 20 nM | – | – | –
NC[C@H]1C[C@@H]2c3ccccc3[C@@H](O)c3ccc(F)cc3[C@H]2O1 [Compound 104] | – | 0.60 | 200 nM | 2.51 nM | 7940 nM | 12.6 nM | –
CNC[C@H]1C[C@@H]2c3ccccc3[C@H](O)c3ccc(F)cc3[C@H]2O1 [Compound 34] | – | <0.77 | 20 nM | 5.01 nM | > 1000 nM | 31.6 nM | –
CCNC[C@H]1C[C@@H]2c3ccccc3[C@H](O)c3ccc(F)cc3[C@H]2O1 [Compound 107] | – | 0.86 | 158 nM | 6.31 nM | 1580 nM | 20 nM | –
CCNC[C@H]1C[C@@H]2c3ccccc3[C@@H](OC)c3ccc(F)cc3[C@H]2O1 [Compound 110] | – | <0.62 | 10 nM | 398 nM | > 10000 nM | 1260 nM | –
C=C1c2ccc(F)cc2C2CC(CNC)OC2c2ccccc21 (single isomer, unassigned) [Compound 94] | – | 0.65 | – | 20 nM | 5010 nM | – | 8.2
COC1c2ccccc2C2CC(CNCc3ccccc3)OC2c2cc(F)ccc21 (stereo not drawn) [Compound 111] | – | 0.96 | 2000 nM | 79.4 nM | 3160 nM | – | –
C=C1c2ccc(F)cc2C2CC(CN(C)C)OC2c2cc(F)ccc21 (stereo not drawn) [Compound 29] | – | <0.72 | 5.01 nM | 12.6 nM | > 1000 nM | – | –
CCNCC1CC2c3ccccc3C(C)(O)c3ccc(F)cc3C2O1 (single isomer, unassigned) [Compound 118] | – | 0.91 | 631 nM | 100 nM | 2000 nM | – | –
C[C@@H]1c2ccccc2[C@H]2C[C@H](CN(C)C)O[C@@H]2c2cc(N(C)C)ccc21 [Compound 78] | – | 0.88 | 398 nM | 100 nM | 2000 nM | – | –
CC1c2ccc(F)cc2C2CC(CN(C)C)OC2c2cc(F)ccc21 (stereo not drawn) [Compound 77] | – | <0.80 | 31.6 nM | 50.1 nM | > 1000 nM | – | –
COc1ccc2c(c1)[C@H]1O[C@@H](CN(C)C)C[C@@H]1c1ccccc1C2=O [Compound 16] | – | 0.95 | 501 nM | 50.1 nM | – | – | –
CCNC[C@H]1C[C@@H]2c3ccccc3[C@@H](O)c3ccc(F)cc3[C@H]2O1 (relative stereo) [Compound 106] | – | 0.67 | 3.98 nM | 5.01 nM | 1260 nM | 20 nM | –
COC1c2ccccc2[C@H]2C[C@H](CN(C)C)O[C@@H]2c2cc(F)ccc21 (stereo partly drawn) [Compound 60] | – | 0.79 | 126 nM | 39.8 nM | 3980 nM | – | –
C=C1c2ccccc2C2CC(CN(C)C)OC2c2ccccc21 (single isomer, unassigned) [Compound 24] | – | <0.65 | 20 nM | 25.1 nM | > 10000 nM | 158 nM | –
CN(C)C[C@H]1C[C@@H]2c3ccccc3C(=O)c3ccc(F)cc3[C@H]2O1 [Compound 12] | – | <0.83 | 63.1 nM | 79.4 nM | > 1000 nM | 63.1 nM | –
C=C1c2ccccc2[C@@H]2C[C@@H](CNC)O[C@H]2c2cc(F)ccc21 [Compound 95] | – | 0.67 | 15.8 nM | 50.1 nM | 6310 nM | – | –
OC1c2ccccc2C2CC(CNCc3ccccc3)OC2c2cc(F)ccc21 (stereo not drawn) [Compound 109] | – | <0.92 | 3980 nM | 12.6 nM | > 10000 nM | – | –
C=C1c2ccc(F)cc2C2CC(CNC)OC2c2ccccc21 (single isomer, unassigned) [Compound 93] | – | 0.73 | 6.31 nM | 3.98 nM | – | – | –

Further lines, results first:

D2 (pIC50) [1] | D2/NET [1] | IC50 [2] | IC50 [3] | IC50 [1] | IC50 [4] | NET-inhibition (pIC50) [2] | Compound
<5 | <0.77 | 316 nM | 6310 nM | – | – | – | CNCC1CC2c3ccccc3C(C)(O)c3ccc(F)cc3C2O1 (single isomer, unassigned) [Compound 124]
– | <0.85 | 1260 nM | 1580 nM | > 10000 nM | – | – | CNCC1CC2c3cc(F)ccc3C(C)(O)c3ccccc3C2O1 (single isomer, unassigned) [Compound 115]
<5 | <0.83 | 631 nM | 1000 nM | – | – | – | CNCC1CC2c3cc(F)ccc3C(C)(O)c3ccccc3C2O1 (single isomer, unassigned) [Compound 114]
<5 | <0.69 | 63.1 nM | 501 nM | – | – | – | CNCC1CC2c3ccccc3C(C)(O)c3ccc(F)cc3C2O1 (single isomer, unassigned) [Compound 126]
– | <0.92 | 3980 nM | 100 nM | > 10000 nM | 316 nM | – | CNC[C@H]1C[C@@H]2c3ccccc3[C@@H](OC(C)C)c3ccc(F)cc3[C@H]2O1 [Compound 63]
– | <0.88 | 2000 nM | 6310 nM | > 10000 nM | – | – | CNCC1CC2c3ccccc3C(C)(O)c3ccc(F)cc3C2O1 (single isomer, unassigned) [Compound 125]
– | <0.62 | 7.94 nM | 158 nM | > 10000 nM | – | – | CNCC1CC2c3ccccc3C(C)c3ccc(F)cc3C2O1 (single isomer, unassigned) [Compound 100]
– | <0.69 | 63.1 nM | 200 nM | > 10000 nM | – | – | CNC[C@@H]1C[C@H]2c3ccccc3C(C)c3ccc(F)cc3[C@@H]2O1 (mixture of isomers) [Compound 99]
– | 0.69 | 15.8 nM | 20 nM | 3980 nM | – | – | CNC[C@H]1C[C@@H]2c3cc(F)ccc3[C@@H](C)c3ccccc3[C@H]2O1 [Compound 101]
– | 0.68 | 31.6 nM | 50.1 nM | 7940 nM | – | – | CNC[C@H]1C[C@H]2c3cc(F)ccc3C(C)c3ccccc3[C@@H]2O1 (mixture of isomers) [Compound 102]
